# Measured values taken from patent US20230330254A1 (Regeneron Pharmaceuticals, Inc., priority 2022, published 2023).
# Read-outs that look alike come from different tables or passages of the source. Where a SMILES comes first, the peptide text is derived from it. [ ]: non-standard residue; d: D form. The star is where a group is joined. Bip(2'-Et,4'-O(CH2)4NH2) = CCc1cc(OCCCCN)ccc1-c1ccc(C[C@H](N)C(=O)O)cc1; Nva(5-(3,5-Me2Ph)) = Cc1cc(C)cc(CCC[C@H](N)C(=O)O)c1; Ala(1H-tetrazol-5-yl) = N[C@@H](Cc1nnn[nH]1)C(=O)O; αMePhe(2-F) = C[C@](N)(Cc1ccccc1F)C(=O)O; X3 = CC(C)(C(=O)*)c1ccn[nH]1; X1 = O=C(CCCCCc1cnc[nH]1)*; X2 = CC(C)(C(N)=O)C(=O)*
# Key:
# [1] = Plasma stability of payloads (t½)
# human GLP1R [2] = molecular target: T1, human GLP1R (Homo sapiens, UniProt P43220); assay: Human GLP1R cAMP accumulation assay; format: cell-based; design: HEK293 cells over-expressing full length human GLP-1R were utilized; expressed in transfected cells; host or cells: HEK293 (HEK293/hGLP1R); conditions: HEK293/hGLP1R cells; Table 4; read-out: cAMP EC50
# Summary of the method: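 cAMP accumulation measured after 30 min at 23° C, with 500 μM IBMX in HEPES-buffered HBSS plus 0.1% BSA, in HEK293 cells expressing full-length hGLP-1R. Levels read by D2-cAMP/antibody immunoassay via standard curve, scaled between low and high controls. EC50 fitted four-parameter over a 10-point curve.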
# human GLP1R [3] = molecular target: T1, human GLP1R; assay: Luciferase reporter assay, HEK293/CRE-Luc/hGLP1R cells (Example 11); format: cell-based; design: engineered to express full-length human GLP1R, cynomolgus GLP1R; expressed in transfected cells; host or cells: HEK293/CRE-Luc; conditions: Table 11; Experiment A
# Source text: (§1) To test the activity of GLP1R agonist payloads, GLP1R agonist linker-payloads (LPs), and anti-GLP1R antibody tethered drug conjugates (ATDCs) of the disclosure, a cell-based cAMP responsive luciferase reporter assay was developed. To generate the assay cell line, the firefly luciferase gene was placed under the control of a cAMP response element (CRE) located upstream of a minimal promoter and transfected into HEK293 cells and referred to herein as HEK293/CRE-Luc cells.
# (§2) Three-fold serial dilutions of free payloads or LPs were prepared in 100% DMSO, transferred to fresh assay media, and added to the cells at a final constant DMSO concentration of 0.2%. The last well in the plate served as a blank control containing only the assay media and 0.2% DMSO (untreated well) and was plotted as a continuation of the 3-fold serial dilution. Four to six hours later, luciferase activity was determined after the addition of One-Glo™ reagent (Promega, Cat #E6130) to each well. Relative light units (RLUs) were measured on an Envision luminometer (PerkinElmer) and EC50 values were determined using a four-parameter logistic equation over a 12-point dose response curve (GraphPad Prism). The signal to noise (S/N) was determined by taking the ratio of the highest RLU on the dose response curve to the RLU in the untreated wells.
# GLP1R agonist linker payloads were conjugated to anti-hGLP1R antibodies via N-terminal heavy or light chain Q tags. Several resulting anti-GLP1R antibody tethered drug conjugates (ATDCs) were tested for activity in the HEK293/CRE-Luc/hGLP1R reporter assay as described above for the free GLP1R payload and linker-payload agonists.
# human GLP1R [4] = molecular target: T1, human GLP1R; assay: Luciferase reporter assay, HEK293/CRE-Luc/hGLP1R (Example 17); format: cell-based; design: engineered to express full-length human GLP1R, cynomolgus GLP1R; expressed in transfected cells; host or cells: HEK293/CRE-Luc; conditions: HEK293/CRE-Luc/hGLP1R; for S/N: highest RLU / RLU of untreated wells; for EC50: payloads and linker-payloads, experiments A-E, M2361 repeated in each, read-out: EC50; for Relative Potency (% M2361 EC50) / Relative Signal:Noise (% M2361): relative to M2361 of the same experiment
# Summary of the method: (§3)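 HEK293 cells carrying a CRE-driven firefly luciferase reporter were exposed to 3-fold serial dilutions of payloads or linker-payloads (12 points, 0.2% DMSO final) for 4–6 h, then luminescence was read. EC50 came from a four-parameter logistic fit; S/N is top RLU over untreated wells, and relative potency and S/N are referenced to M2361.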
# HEK293/CRE-Luc cells [5] = assay: Luciferase reporter assay, HEK293/CRE-Luc cells without GLP1R (Example 17); format: cell-based, human; conditions: HEK293/CRE-Luc cells without hGLP1R, payloads and linker-payloads; for EC50: read-out: EC50
# Summary of the method: as §3
# HEK293/CRE-Luc cells [6] = assay: Luciferase reporter assay, HEK293/CRE-Luc cells without hGLP1R (Example 11); format: cell-based, human; conditions: Table 11; Experiment A; no hGLP1R expression
# Source text: as §1, §2
# [7] = Plasma stability of payloads and linker-payloads, human plasma; format: in vitro ADME; conditions: plasma, 2 μM, 37° C., read-out: Human plasma stability assay T½ (converted)
# Description: The plasma stability of payloads and linker payloads of the disclosure were measured. For the assay, pooled frozen plasma (human, mouse or monkey) was thawed in cold water or a 37° C. water bath prior to experiment. Plasma was centrifuged at 4000 rpm for 5 min if any clots were observed, they were subsequently removed. If required, the pH was adjusted to 7.4±0.1. For the preparation of compounds and positive controls, a 1 mM intermediate solution was prepared by diluting 10 μL of their stock solution with 90 μL DMSO; a 1 mM intermediate solution of the positive control (Propantheline) was prepared by diluting 10 μL of its stock solution with 90 μL ultrapure water. […] 98 μL of plasma was spiked with 2 μL of dosing solution (100 μM) to achieve the final concentration of 2 μM in duplicate. Samples were then incubated at 37° C. in a water bath. […] At each time point, 400 μL of stop solution (200 ng/mL tolbutamide plus 200 ng/mL labetalol in 50% ACN/MeOH) was added to precipitate protein and mixed thoroughly. Sample plates were then centrifuged at 4,000 rpm for 10 min. An aliquot of supernatant (50 μL) was transferred from each well and mixed with 100 μL ultrapure water. The samples were then shaken at 800 rpm for approximately 10 min before submitting for LC-MS/MS analysis.
# [8] = pH 7.4, tested time A (1 day per footnote)
# T1 sequence (P43220 24-463): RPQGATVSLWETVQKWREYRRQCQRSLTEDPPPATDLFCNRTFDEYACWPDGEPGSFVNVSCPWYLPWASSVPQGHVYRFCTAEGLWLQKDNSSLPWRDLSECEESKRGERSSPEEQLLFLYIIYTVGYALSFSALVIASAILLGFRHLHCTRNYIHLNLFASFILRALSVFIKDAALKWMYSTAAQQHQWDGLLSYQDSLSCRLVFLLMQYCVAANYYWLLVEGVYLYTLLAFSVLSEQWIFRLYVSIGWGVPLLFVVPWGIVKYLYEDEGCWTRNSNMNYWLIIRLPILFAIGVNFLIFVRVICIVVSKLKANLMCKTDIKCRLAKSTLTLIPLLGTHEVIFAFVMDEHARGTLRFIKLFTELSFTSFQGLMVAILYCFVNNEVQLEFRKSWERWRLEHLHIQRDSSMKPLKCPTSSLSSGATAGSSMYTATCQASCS
compound,measurement,setting,value
"CCc1cc(OCCCCN)ccc1-c1ccc(C[C@H](NC(=O)[C@H](CC(=O)O)NC(=O)[C@H](CO)NC(=O)[C@@H](NC(=O)[C@](C)(Cc2ccccc2F)NC(=O)[C@@H](NC(=O)CNC(=O)[C@H](Cc2nn[nH]n2)NC(=O)C(C)(C)C(N)=O)[C@@H](C)O)[C@@H](C)O)C(=O)N[C@@H](CCCc2cc(C)cc(C)c2)C(N)=O)cc1 [P4] (X2-[Ala(1H-tetrazol-5-yl)]GT[αMePhe(2-F)]TSD[Bip(2'-Et,4'-O(CH2)4NH2)][Nva(5-(3,5-Me2Ph))]-NH2)",Plasma stability t½,[1],>57.8 h
same,EC50,human GLP1R [2],0.156 nM
same,EC50,human GLP1R [3],0.0837 nM
same,HEK293/CRE-LUC/hGLP1R Relative Potency (% P8 EC50),human GLP1R [3],6.3%
same,HEK293/CRE-LUC/hGLP1R S/N,human GLP1R [3],66.9
same,S/N,human GLP1R [4],66.9
same,EC50,human GLP1R [4],0.0837 nM
same,Relative Potency (% M2361 EC50),human GLP1R [4],6.3%
same,Relative Signal:Noise (% M2361),human GLP1R [4],101.8%
same,S/N,HEK293/CRE-Luc cells [5],1.6
same,EC50,HEK293/CRE-Luc cells [5],> 200 nM
same,EC50,HEK293/CRE-Luc cells [6],> 200 nM
same,HEK293/CRE-LUC S/N,HEK293/CRE-Luc cells [6],1.6
same,half-life at 2 µM,[7]; [8],> 57.8 h
"CCc1cc(OCCCCN)ccc1-c1ccc(C[C@H](NC(=O)[C@H](CC(=O)O)NC(=O)[C@H](CO)NC(=O)[C@@H](NC(=O)[C@](C)(Cc2ccccc2F)NC(=O)[C@@H](NC(=O)CNC(=O)[C@H](Cc2nn[nH]n2)NC(=O)C(C)(C)c2ccn[nH]2)[C@@H](C)O)[C@@H](C)O)C(=O)N[C@@H](CCCc2cc(C)cc(C)c2)C(N)=O)cc1 [P6] (X3-[Ala(1H-tetrazol-5-yl)]GT[αMePhe(2-F)]TSD[Bip(2'-Et,4'-O(CH2)4NH2)][Nva(5-(3,5-Me2Ph))]-NH2)",Plasma stability t½,[1],>57.8 h
same,EC50,human GLP1R [2],0.853 nM
same,EC50,human GLP1R [3],0.602 nM
same,HEK293/CRE-LUC/hGLP1R Relative Potency (% P8 EC50),human GLP1R [3],0.9%
same,HEK293/CRE-LUC/hGLP1R S/N,human GLP1R [3],60.7
same,S/N,human GLP1R [4],60.7
same,EC50,human GLP1R [4],0.602 nM
same,Relative Potency (% M2361 EC50),human GLP1R [4],0.9%
same,Relative Signal:Noise (% M2361),human GLP1R [4],92.3%
same,S/N,HEK293/CRE-Luc cells [5],1.0
same,EC50,HEK293/CRE-Luc cells [5],> 200 nM
same,EC50,HEK293/CRE-Luc cells [6],> 200 nM
same,HEK293/CRE-LUC S/N,HEK293/CRE-Luc cells [6],1.0
same,half-life at 2 µM,[7]; [8],> 57.8 h
"CCc1cc(OCCCCN)ccc1-c1ccc(C[C@H](NC(=O)[C@H](CC(=O)O)NC(=O)[C@H](CO)NC(=O)[C@@H](NC(=O)[C@](C)(Cc2ccccc2F)NC(=O)[C@@H](NC(=O)CNC(=O)[C@H](Cc2nn[nH]n2)NC(=O)CCCCCc2cnc[nH]2)[C@@H](C)O)[C@@H](C)O)C(=O)N[C@@H](CCCc2cc(C)cc(C)c2)C(N)=O)cc1 [P11] (X1-[Ala(1H-tetrazol-5-yl)]GT[αMePhe(2-F)]TSD[Bip(2'-Et,4'-O(CH2)4NH2)][Nva(5-(3,5-Me2Ph))]-NH2)",Plasma stability t½,[1],>57.8 h
same,EC50,human GLP1R [2],1.03 nM
same,EC50,human GLP1R [3],0.685 nM
same,HEK293/CRE-LUC/hGLP1R Relative Potency (% P8 EC50),human GLP1R [3],0.8%
same,HEK293/CRE-LUC/hGLP1R S/N,human GLP1R [3],54.8
same,S/N,human GLP1R [4],54.8
same,EC50,human GLP1R [4],0.685 nM
same,Relative Potency (% M2361 EC50),human GLP1R [4],0.8%
same,Relative Signal:Noise (% M2361),human GLP1R [4],83.4%
same,S/N,HEK293/CRE-Luc cells [5],1.1
same,EC50,HEK293/CRE-Luc cells [5],> 200 nM
same,EC50,HEK293/CRE-Luc cells [6],> 200 nM
same,HEK293/CRE-LUC S/N,HEK293/CRE-Luc cells [6],1.1
same,half-life at 2 µM,[7]; [8],> 57.8 h
"CCc1cc(OCCCCN)ccc1-c1ccc(C[C@H](NC(=O)[C@H](CC(=O)O)NC(=O)[C@H](CO)NC(=O)[C@@H](NC(=O)[C@](C)(Cc2ccccc2F)NC(=O)[C@@H](NC(=O)CNC(=O)[C@H](Cc2nn[nH]n2)NC(=O)[C@H](C)NC(=O)[C@H](Cc2c[nH]cn2)NC(=O)[C@@H](N)CCC(N)=O)[C@@H](C)O)[C@@H](C)O)C(=O)N[C@@H](CCCc2cc(C)cc(C)c2)C(N)=O)cc1 [P13] (H-QHA[Ala(1H-tetrazol-5-yl)]GT[αMePhe(2-F)]TSD[Bip(2'-Et,4'-O(CH2)4NH2)][Nva(5-(3,5-Me2Ph))]-NH2)",Plasma stability t½,[1],16.9 h
same,EC50,human GLP1R [2],0.914 nM
same,EC50,human GLP1R [3],0.357 nM
same,HEK293/CRE-LUC/hGLP1R Relative Potency (% P8 EC50),human GLP1R [3],1.5%
same,HEK293/CRE-LUC/hGLP1R S/N,human GLP1R [3],69.5
same,S/N,human GLP1R [4],69.5
same,EC50,human GLP1R [4],0.357 nM
same,Relative Potency (% M2361 EC50),human GLP1R [4],1.5%
same,Relative Signal:Noise (% M2361),human GLP1R [4],105.6%
same,S/N,HEK293/CRE-Luc cells [5],1.2
same,EC50,HEK293/CRE-Luc cells [5],> 200 nM
same,EC50,HEK293/CRE-Luc cells [6],> 200 nM
same,HEK293/CRE-LUC S/N,HEK293/CRE-Luc cells [6],1.2
same,half-life at 2 µM,[7]; [8],16.9 h
CCc1cc(OCCCCN)ccc1-c1ccc(C[C@H](NC(=O)[C@H](CC(=O)O)NC(=O)[C@H](CO)NC(=O)[C@@H](NC(=O)[C@](C)(Cc2ccccc2F)NC(=O)[C@@H](NC(=O)CNC(=O)[C@H](CCC(N)=O)NC(=O)C(C)(C)C(=O)NCCc2cnc[nH]2)[C@@H](C)O)[C@@H](C)O)C(=O)N[C@@H](CCCc2cc(C)cc(C)c2)C(N)=O)cc1 [P21],Plasma stability t½,[1],>57.8 h
same,EC50,human GLP1R [2],0.427 nM
same,EC50,human GLP1R [3],0.738 nM
same,HEK293/CRE-LUC/hGLP1R Relative Potency (% P8 EC50),human GLP1R [3],0.7%
same,HEK293/CRE-LUC/hGLP1R S/N,human GLP1R [3],58.8
same,S/N,human GLP1R [4],58.8
same,EC50,human GLP1R [4],0.738 nM
same,Relative Potency (% M2361 EC50),human GLP1R [4],0.7%
same,Relative Signal:Noise (% M2361),human GLP1R [4],89.5%
same,S/N,HEK293/CRE-Luc cells [5],1.3
same,EC50,HEK293/CRE-Luc cells [5],> 200 nM
same,EC50,HEK293/CRE-Luc cells [6],> 200 nM
same,HEK293/CRE-LUC S/N,HEK293/CRE-Luc cells [6],1.3
same,half-life at 2 µM,"[7]; pH 7.4, tested time C (3 days)",> 173 h
